Laboratory results: patent publication US9688625B2, “Amorphous form of a thiocolchicine derivative” (priority 2014, dated 2017)

Experiments:
Assay type in all cases: physicochemical
[1] = Chemical stability on storage, analyses by HPLC; details: for variation in the chemical composition: after one month at 40±2° C./75±5% relative humidity; for time for which chemically stable (none impurity departed from its initial value): HPLC
Description: The analyses were performed by HPLC.

[2] = Solubility (comparison of solid forms); details: compared with other crystalline forms
[3] = Physical stability on storage (features of FIG. 1-4 maintained); details: 40±2° C./75±5 relative humidity
Description: The amorphous form of compound (I) has also been found physically stable at 25±2° C./60±5% relative humidity for at least three years and at 40±2° C./75±5 relative humidity for at least 6 months, as it maintained the characteristics features reported in FIG. 1-4.

Compound: COc1cc2c(c(OC)c1OC)-c1ccc(SC)c(=O)cc1[C@@H](NC(=O)CCNC(=O)N[C@H]1CCc3cc(OC)c(OC)c(OC)c3-c3ccc(SC)c(=O)cc31)CC2 (single isomer, unassigned) [crystalline IDN 5404 obtained in Example 2] [reference compound]
- variation in the chemical composition [1]: 7%

Compound: COc1cc2c(c(OC)c1OC)-c1ccc(SC)c(=O)cc1[C@@H](NC(=O)CCNC(=O)N[C@H]1CCc3cc(OC)c(OC)c(OC)c3-c3ccc(SC)c(=O)cc31)CC2 (single isomer, unassigned) [crystalline IDN 5404 obtained in Example 3] [reference compound]
- variation in the chemical composition [1]: 4.1%

Compound: COc1cc2c(c(OC)c1OC)-c1ccc(SC)c(=O)cc1[C@@H](NC(=O)CCNC(=O)N[C@H]1CCc3cc(OC)c(OC)c(OC)c3-c3ccc(SC)c(=O)cc31)CC2 [amorphous form of compound (I), IDN 5404]
- time for which chemically stable (none impurity departed from its initial value) ([1]; 25±2° C./60±5% relative humidity): at least three
- time for which chemically stable (none impurity departed from its initial value) ([1]; 40±2° C./75±5% relative humidity): at least 6 moths
- solubility in water [2]: more soluble in water than other crystalline forms
- time for which physically stable (maintained features of FIG. 1-4) [3]: at least 6 months
